Assay results published in article PMC6727617, “Exploiting Designed Oxidase–Peroxygenase Mutual Benefit System for Asymmetric Cascade Reactions” (Journal of the American Chemical Society, 2019).

How the values were obtained:
[1] = target: T1, ANEH (Aspergillus niger, UniProt Q9UR30); test: one-pot cascade with lyophilized lysate powders, conversion to diol; assay type: biochemical; settings: 50 mM PBS pH 8.0, 300 mM NaCl; epoxide formed in situ by P450-BM3 SO5
T1 construct: gene hyl1; recombinant, co-expressed with P450-BM3 SO5 under the same T7 promoter; lyophilized cell-free lysate powder
T1 sequence (Q9UR30 1-398): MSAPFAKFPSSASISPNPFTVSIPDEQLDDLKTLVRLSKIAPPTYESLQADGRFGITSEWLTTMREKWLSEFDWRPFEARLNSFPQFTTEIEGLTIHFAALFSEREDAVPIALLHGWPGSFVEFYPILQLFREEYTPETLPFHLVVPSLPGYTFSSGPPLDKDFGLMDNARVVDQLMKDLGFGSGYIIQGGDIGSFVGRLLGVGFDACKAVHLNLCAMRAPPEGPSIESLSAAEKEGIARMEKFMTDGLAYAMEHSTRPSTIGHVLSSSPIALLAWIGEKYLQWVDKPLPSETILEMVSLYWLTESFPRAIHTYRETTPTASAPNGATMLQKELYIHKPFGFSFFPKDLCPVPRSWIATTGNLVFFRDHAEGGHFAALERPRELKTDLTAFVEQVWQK

[2] = target: T2, OleTJE (Jeotgalicoccus sp. ATCC 8456, UniProt E9NSU2); test: GC of styrene / styrene oxide formation in coupled reaction with purified P450-BM3 SO5; assay type: biochemical; settings: no external H2O2, H2O2 from SO5 uncoupling
T2 construct: gene JEM45_03820; recombinant; purified enzyme or lyophilized cell-free lysate powder
T2 sequence (E9NSU2 1-422): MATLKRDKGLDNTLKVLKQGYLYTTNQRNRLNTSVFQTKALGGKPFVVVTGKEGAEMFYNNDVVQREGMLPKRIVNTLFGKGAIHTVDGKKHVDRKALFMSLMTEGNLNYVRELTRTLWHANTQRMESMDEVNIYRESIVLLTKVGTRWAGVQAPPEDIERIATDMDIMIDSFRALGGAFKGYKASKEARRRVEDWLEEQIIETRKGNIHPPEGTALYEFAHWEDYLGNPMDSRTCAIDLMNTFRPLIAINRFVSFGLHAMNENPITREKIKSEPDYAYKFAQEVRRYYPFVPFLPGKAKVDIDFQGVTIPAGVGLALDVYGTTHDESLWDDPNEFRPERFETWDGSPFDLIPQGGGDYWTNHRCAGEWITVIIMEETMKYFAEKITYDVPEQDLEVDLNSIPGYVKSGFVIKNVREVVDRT

| Structure (SMILES) | one-pot cascade with lyophilized lysate powders, conversion to diol [1] | GC of styrene / styrene oxide formation in coupled reaction with purified P450-B [2] |
| --- | --- | --- |
| c1ccc([C@@H]2CO2)cc1 [(R)-styrene oxide] | selective hydrolytic ring-opening of the respective epoxide catalyzed by the epoxide hydrolase |  |
| C=Cc1ccccc1 [styrene] |  | OleT-Catalyzed Reaction B Supplies the Necessary Styrene from 3-Phenyl Propionic Acid |
| O=C(O)CCc1ccccc1 [1a, 3-phenyl propionic acid] |  | purified OleTJE was mixed with the purified SO5 variant, and tested in the model reaction |
